Data taken from patent US12097203B2, “Combination therapies comprising SHP2 inhibitors and PD-1 inhibitors” (HUYABIO International, LLC, priority 2021, dated 2024).

Test system: MC38 tumor
Experiment: Cytokine detection assay (V-Plex Proinflammatory Panel 1 Mouse Kit) in MC38 tumor bearing animals
Format: in vivo, mice
Conditions: MC38 tumor model, plasma from tumor bearing animals 2 hours post last dose
Source text: Reagents: GH21001 (TNO-155), GH21005 (compound of Formula Ia) were supplied by HUYA Biosciences, USA, RMC-4550 was purchased from MCE, China. Osimertinib was purchased from Selleck, China. Cisplatin was purchased from Qilu Pharma, China. Anti-PD-1 (RMP1-14) and Rat IgG2a antibodies were purchased from BioXCell (China).
All cell lines were maintained in culture and cells in exponential growth phase were harvested and quantitated by cell counter before tumor inoculation. MC38 tumor cells (1×10^6) in 0.1 ml of PBS were inoculated into the right front flank of female C57/Bl animals, mean tumor size approximately 112 mm^3 at the start of treatment.
The date of randomization and treatment initiation was denoted as day 0. Tumor volumes were measured twice per week in two dimensions using a caliper, and the volume will be expressed in mm3 using the formula: V=(L×W×W)/2, where V is tumor volume, L is tumor length (the longest tumor dimension) and W is tumor width (the longest tumor dimension perpendicular to L). Dosing volume was 10 mL/kg/day. […]
Cytokine detection assay: V-Plex Proinflammatory Panel 1 Mouse Kit (Mesoscale Discovery) was used to determine cytokine levels in plasma isolated from tumor bearing animals 2 hours post last dose. Plasma from tumor bearing animals was analyzed as described by the manufacture's guidelines. […]

## C[C@@H]1OCC2(CCN(c3cnc(Sc4cccc(NC(=O)c5c(O)nc6n(c5=O)CCCC6)c4Cl)cn3)CC2)[C@@H]1N [compound of Formula (Ia), N-(3-((5-((3S,4S)-4-amino-3-methyl-2-oxa-8-azaspiro[4.5]decan-8-yl)pyrazin-2-yl)thio)-2-chlorophenyl)-2-hydroxy-4-oxo-6,7,8,9-tetrahydro-4H-pyrido[1,2-a]pyrimidine-3-carboxamide]
FIG. 2A
  KC/GRO level: slight decreases
FIG. 2B
  TNF-alpha level: slight decreases
